# Results from patent US12714721B2, “Methods of treatment of a cytokine storm” (Loma Linda University Health, priority 2020, dated 2026).
# “Also recorded” adds a separate entry of the source.
# Assay: Serum IGF-I in LPS-treated mice after IGF-I in vivo gene therapy
# Parameters: species or system mouse
# Conditions: LPS 20 mg/kg i.p., 7-day study, IGF-I gene therapy i.m. one day prior to LPS
# Procedure: AKI inflammation was associated with a decrease in serum IGF-I. This deficiency was rescued by expression of IGF-1. An in vivo gene therapy approach was utilized. A lentiviral vector engineered to express IGF-I was injected into skeletal muscle of the mice. Constant IGF-I production was designed because IGF binding protein 3, which normally binds to and stabilizes IGF-1 in serum, is expected to decrease. This decrease is due to liver growth receptor depression and therefore the free IGF-I, being a small molecule, is excreted in the urine. By using in vivo gene therapy approach, the free IGF-I is available to the sites of injury in the kidney.
# In this 7-day study, there was a marked drop in serum IGF-I from 337.5 to 85 ng/mL (p<0.001), as a consequence of LPS therapy (20 mg/kg body weight). […] Under normal conditions, IGF-I circulates bound to IGFBP3. However, under the conditions of LPS administration, IGFBP3 would be expected to be low. Consequently, IGF-1 produced by muscle should circulate as free IGF-I, which would be readily accessible through the remaining intact vasculature to the injured kidney.
# Experimental Design for IGF-1 and BTP-2 studies—The animal experiments involved B6 mice between 5-8 weeks of age. […]
substance,measurement,setting,value
"IGF-I: Insulin-like Growth Factor, delivered by a lentiviral vector engineered to express IGF-I injected into skeletal muscle",serum IGF-I,,normalized the low serum IGF-I; also recorded: rescued this deficiency
same,serum IGF-I,listed as Lenti-IGF-I,rescued the serum IGF-I deficiency
